{
  "source": "paper PMC8448514",
  "about": "“Exploratory comparisons between different anti-mitotics in clinically-used drug combination in triple negative breast cancer” (Oncotarget, 2021)",
  "key": {"[1]": {"tested_on": "breast cancer", "details": "cited from earlier work"}, "[2]": {"tested_on": "intratumoral necrotic area of MDA-MB-231 tumor", "experiment": "Histopathological analysis of tumor sections (H&E)", "type": "in vivo, mice", "details": "monotherapy; 4bt, 4bc 80 mg/Kg, paclitaxel 20 mg/Kg; vs vehicle", "description": "Tumors and lungs were fixed in 10% buffered formalin and processed for paraffin embedding. Processed material was sectioned at 5 μm, and sections were stained with hematoxylin & eosin (HE) for analysis under the light microscope Axiovert (Zeiss, Germany). Tumor and lung sections were analyzed for general histopathological assessment."}, "[3]": {"tested_on": "ALDH1-A1", "experiment": "ALDH1-A1 immunohistochemistry of tumor sections", "type": "in vivo, mice", "details": "4bt, 4bc 80 mg/Kg, paclitaxel 20 mg/Kg; vs vehicle", "excerpt": "After acquisition, images were submitted to a semi-quantitative analysis using the IHC Profiler plug-in (National Institute of Health) from ImageJ software. Images were submitted to a deconvolution process, and histogram profiles, corresponding to pixel intensity as well as a stain-positivity percentage value derived from a scoring system based on optical density, were automatically generated. Areas rated as highly positive or positive were considered for analysis.\nIn order to evaluate the role of KIF-11 inhibitors in some key features for tumor progression and development, we analyzed tumor sections for the levels of KIF-11, ALDH1-A1 and Ki67 expression by immunofluorescence (IF) or immunohistochemistry. Immunostaining was performed on 5 μm sections of formalin-fixed paraffin-embedded (FFPE) tissue. […]\n(§1) Slides were then washed in PBS/0.025% Triton, incubated at room temperature in the dark with (1:500) Alexa Fluor 488-Anti-rabbit secondary antibody, for KIF-11 and Ki67, or (1:250) Goat anti-rabbit HRP, for ALDH1-A1 for 1 hour, washed three times with PBS. […] Slides for ALDH1-A1 analysis were counterstained with hematoxylin and analyzed under light microscope Axiovert (Zeiss, Germany).\nFor ALDH1-A1 quantification of positive areas, IHC Profiler plug-in was used as previously described for TUNEL analysis."}, "[4]": {"tested_on": "Balb-c nude mice bearing breast tumor", "experiment": "Red blood cell analysis (complete blood count)", "type": "in vivo", "details": "20 mg/kg i.p., monotherapy; mean ± SEM"}, "[5]": {"tested_on": "breast cancer induced by MDA-MB-231", "experiment": "Tumor volume monitoring in xenograft model", "type": "in vivo, mice", "details": "used in combination with doxorubicin 10 mg/Kg and cyclophosphamide 100 mg/Kg; 4bt 80 mg/Kg, paclitaxel 10 mg/Kg", "description": "Mice were anesthetized with ketamine (80 mg/kg of body weight) and xylazine (20 mg/kg of body weight) solution. 2 × 10^6 MDA-MB-231 cells in PBS/20% type I Collagen (100 μL) were inoculated in the fourth right mammary fat pad. After tumor establishment, about 5 weeks after inoculation, mice were randomized into experimental groups (n = 5 per group), and treatment started."}, "[6]": {"tested_on": "KIF11", "experiment": "Intratumoral KIF11 expression by immunofluorescence", "type": "in vivo, mice", "details": "4bt, 4bc 80 mg/Kg; paclitaxel 20 mg/Kg; AC-T; AC-4bt; vs vehicle", "description": "In order to evaluate the role of KIF-11 inhibitors in some key features for tumor progression and development, we analyzed tumor sections for the levels of KIF-11, ALDH1-A1 and Ki67 expression by immunofluorescence (IF) or immunohistochemistry. Immunostaining was performed on 5 μm sections of formalin-fixed paraffin-embedded (FFPE) tissue. Tissue slides were baked, deparaffinized in xylene and passed through graded alcohols for rehydration. Antigen retrieval was achieved submitting samples to a 10 mM Trisodium Citrate solution, pH 6.0 in a steam pressure cooker at 100°C for 10 minutes. Slides were then left immersed in the Trisodium Citrate solution at room temperature for 20 minutes before being washed with PBS/0.025% Triton. The area around each section was delimited by a hydrophobic liquid blocker (PAP-Pen) in order to assure homogeneous distribution of reagents and antibodies.\nas §1"}, "[7]": {"tested_on": "tumor cell apoptosis", "experiment": "TUNEL assay for apoptosis in tumor sections", "type": "in vivo, mice", "details": "paclitaxel 20 mg/Kg; AC-T; AC-4bt; vs vehicle", "description": "The level of apoptosis in tumor sections was determined by TUNEL assay. TUNEL staining was performed on paraffin-embedded sections using Click-iT™ TUNEL Colorimetric IHC Detection Kit (Invitrogen, Carlsbad – USA) according to the manufacturer’s protocol. Briefly, the sections were dewaxed, rehydrated, and immersed in 4% paraformaldehyde fixative solution for 15 minutes. They were then washed and incubated with proteinase K for 20 min at room temperature. The slides were washed with PBS for 5 minutes, and immersed in 4% paraformaldehyde fixative solution again for 5 minutes at room temperature. Slides were then washed with PBS (twice, for 5 minutes) and rinsed with deionized water. Samples were incubated in TdT Reaction Buffer for 10 minutes at 37°C. The TdT reaction buffer was gently removed using paper towels and slides were incubated with TdT Reaction Mixture for another hour at 37°C in a humidified chamber. After being rinsed with PBS, slides were immersed in 2X SSC for 15 minutes, in order to fully quench TdT reaction. Slides were washed with 1X Click-iT™ TUNEL Colorimetric Wash solution and incubated with the Click-iT™ TUNEL Colorimetric Reaction cocktail for 30 minutes at 37°C, protected from light. […]\nAfter acquisition, images were submitted to a semi-quantitative analysis using the IHC Profiler plug-in (National Institute of Health) from ImageJ software. […]"}, "[8]": {"tested_on": "Balb-c nude mice bearing breast tumor", "experiment": "Biochemical analysis of blood (liver and kidney toxicity)", "type": "in vivo", "details": "20 mg/kg i.p., monotherapy"}, "[9]": {"tested_on": "Balb-c nude mice bearing breast tumor", "experiment": "White blood cell and platelet analysis (complete blood count)", "type": "in vivo", "details": "20 mg/kg i.p., monotherapy, mean ± SEM"}, "[10]": {"experiment": "Body weight and clinical monitoring", "protocol": "(§2) Animals of all experimental groups were monitored with regards to their weight, behavior and clinical aspects. Animals body weight were assessed prior the beginning of treatment and twice a week throughout the experiment period as an important indicator of toxicity.\nAll treatments were administered intraperitoneally (i.p) (Figure 7).\nAnimal weight was also monitored with help of a digital scale twice a week."}, "[11]": {"tested_on": "Balb-c/nude mice", "experiment": "Behavioral observation (motor capacity, peripheral neuropathy)", "type": "in vivo", "details": "a few minutes after administration; paclitaxel 10 or 20 mg/Kg, 4bt 80 mg/Kg; monotherapy and drug combination", "protocol": "as §2"}},
  "data": [
    {"smiles": "Cc1ccc(C(=O)N(CCCN)[C@@H](c2nc3cc(Cl)ccc3c(=O)n2Cc2ccccc2)C(C)C)cc1", "note": "[Ispinesib]", "values": [
      {"measurement": "Neurotoxicity / tolerability", "setting": "[1]; clinical", "value": "no indication of neurotoxicity"},
      {"measurement": "Antitumor activity in phase I trial", "setting": "[1]; phase I trial in breast cancer", "value": "relevant antitumor activity and stabilization of the disease"}
    ]},
    {"smiles": "CC(=O)O[C@H]1C(=O)[C@@]2(C)[C@H]([C@H](OC(=O)c3ccccc3)[C@]3(O)C[C@H](OC(=O)[C@H](O)[C@@H](NC(=O)c4ccccc4)c4ccccc4)C(C)=C1C3(C)C)[C@]1(OC(C)=O)CO[C@@H]1C[C@@H]2O", "note": "[Paclitaxel, paclitaxel]", "values": [
      {"measurement": "Intratumoral necrotic area", "setting": "[2]", "value": "reduction in the size of necrotic area"},
      {"measurement": "ALDH1-A1 expression change", "setting": "[3]", "value": "didn’t cause significant changes in ALDH1-A1 expression"},
      {"measurement": "Hematocrit", "setting": "[4]", "value": "42.56 ± 0.62", "unit": "%"},
      {"measurement": "Hemoglobin", "setting": "[4]", "value": "12.80 ± 0.14", "unit": "g/dL"},
      {"measurement": "MCH (mean corpuscular hemoglobin)", "setting": "[4]", "value": "15.73 ± 0.05", "unit": "pg"},
      {"measurement": "MCHC (mean corpuscular hemoglobin concentration)", "setting": "[4]", "value": "30.07 ± 0.12", "unit": "g/dL"},
      {"measurement": "MCV (mean corpuscular volume)", "setting": "[4]", "value": "52.23 ± 0.42", "unit": "fL"},
      {"measurement": "RDW (red cell distribution width)", "setting": "[4]", "value": "22.85 ± 0.98", "unit": "%"},
      {"measurement": "Red cells", "setting": "[4]", "value": "8.15 ± 0.08 10^6/mm^3"},
      {"measurement": "Tumor volume", "setting": "[5]", "value": "significantly decreasing the tumor volume"},
      {"measurement": "Intratumoral KIF11 expression", "setting": "[6]", "value": "didn’t cause any change on KIF11 levels"},
      {"measurement": "TUNEL positive area staining (apoptotic activity)", "setting": "[7]", "value": "substantially increase positive area staining"},
      {"measurement": "Creatinine", "setting": "[8]", "value": "< 0,2 mg/dL"},
      {"measurement": "ALP (alkaline phosphatase)", "setting": "[8]; mean ± SEM", "value": "86.50 ± 10.5", "unit": "U/L"},
      {"measurement": "ALT (alanine transaminase)", "setting": "[8]; mean ± SEM", "value": "21.50 ± 1.50", "unit": "UI/L"},
      {"measurement": "AST (aspartate aminotransferase)", "setting": "[8]; mean ± SEM", "value": "98.50 ± 21.50", "unit": "UI/L"},
      {"measurement": "GGT (gamma-glutamyl transferase)", "setting": "[8]; mean ± SEM", "value": "< 1", "unit": "U/L"},
      {"measurement": "LDH (lactate dehydrogenase)", "setting": "[8]; mean ± SEM", "value": "464.50 ± 50.5", "unit": "U/L"},
      {"measurement": "Urea", "setting": "[8]; mean ± SEM", "value": "59.00 ± 2.00", "unit": "mg/dL"},
      {"measurement": "Basophils (%)", "setting": "[9]", "value": "2 ± 1.25", "unit": "%"},
      {"measurement": "Basophils (Abs)", "setting": "[9]", "value": "42.79 ± 22.69"},
      {"measurement": "Eosinophils (%)", "setting": "[9]", "value": 0.00, "unit": "%"},
      {"measurement": "Eosinophils (Abs)", "setting": "[9]", "value": 0.00},
      {"measurement": "Lymphocytes (%)", "setting": "[9]", "value": "78.63 ± 2.36", "unit": "%"},
      {"measurement": "Lymphocytes (Abs)", "setting": "[9]", "value": "1682.24 ± 602.57"},
      {"measurement": "MPV (mean platelet volume)", "setting": "[9]", "value": "7.07 ± 0.12", "unit": "fL"},
      {"measurement": "Monocytes (%)", "setting": "[9]", "value": "4.79 ± 3.74", "unit": "%"},
      {"measurement": "Monocytes (Abs)", "setting": "[9]", "value": "102.51 ± 65.75"},
      {"measurement": "Neutrophils (%)", "setting": "[9]", "value": "12.07 ± 5.10", "unit": "%"},
      {"measurement": "Neutrophils (Abs)", "setting": "[9]", "value": "258.30 ± 103.76"},
      {"measurement": "Platelets", "setting": "[9]", "value": "1070.01 ± 37.28 10^3/mm^3"},
      {"measurement": "WBC (white blood cells)", "setting": "[9]", "value": "2139.39 ± 684.75"},
      {"measurement": "WBC (white blood cells)", "setting": "[9]; listed as paclitaxel", "value": "2139.39 ± 684.75"},
      {"measurement": "Body weight change", "setting": "[10]; cycles of paclitaxel 10 mg/Kg or 4bt 80 mg/Kg after AC", "value": "did not cause any further reduction"},
      {"measurement": "Body weight change", "setting": "[10]; monotherapy, 4bt and 4bc 80 mg/Kg, PTX 20 mg/Kg, 1 week after the beginning of treatment, no significant change afterwards", "value": "weight reduction"},
      {"measurement": "Motor capacity / behavioral changes", "setting": "[11]", "value": "reduced motor capacity"}
    ]}
  ]
}
